Test: Binding affinity towards Alpha1D dog adrenergic receptors, using [125I]-HEAT as radioligand.

Compound: C[C@@H]1OC(=O)N(C(=O)NCCCN2CCC(c3ccc(F)cc3)CC2)[C@H]1c1ccc(F)c(F)c1 [4-(3,4-Difluoro-phenyl)-5-methyl-2-oxo-oxazolidine-3-carboxylic acid {3-[4-(4-fluoro-phenyl)-piperidin-1-yl]-propyl}-amide]
- Ki: 133 nM
